In PubChem BioAssay (NCI):
Values joined by “and” are separate entries in the source; they are usually repeats but may differ in a detail not shown here. Equal values may be shown once.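 Assay format: 96-well plates, 48-hour exposure. Here, GI50 denotes the concentration required for 50% inhibition of growth. At the TGI there is no net growth.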

How the values were obtained:
Assay in all cases: inhibition of tumour cell growth, NCI panel, 48 h
HS 578T breast = tested on: HS 578T breast
MALME-3M melanoma = tested on: MALME-3M melanoma
SNB-19 CNS = tested on: SNB-19 CNS
UO-31 renal = tested on: UO-31 renal
RPMI-8226 leukemia = tested on: RPMI-8226 leukemia
OVCAR-4 ovarian = tested on: OVCAR-4 ovarian
MDA-MB-231 breast = tested on: MDA-MB-231 breast
SF-295 CNS = tested on: SF-295 CNS
NCI-H460 lung = tested on: NCI-H460 lung
SN12C renal = tested on: SN12C renal
HCT-116 colon = tested on: HCT-116 colon
EKVX NSCLC = tested on: EKVX NSCLC
UACC-257 melanoma = tested on: UACC-257 melanoma
SK-MEL-5 melanoma = tested on: SK-MEL-5 melanoma
U251 CNS = tested on: U251 CNS
K-562 leukemia = tested on: K-562 leukemia
HOP-92 NSCLC = tested on: HOP-92 NSCLC
T-47D breast = tested on: T-47D breast
MCF7 breast = tested on: MCF7 breast
COLO 205 colon = tested on: COLO 205 colon
HOP-62 NSCLC = tested on: HOP-62 NSCLC
MOLT-4 leukemia = tested on: MOLT-4 leukemia
OVCAR-5 ovarian = tested on: OVCAR-5 ovarian
A498 renal = tested on: A498 renal
CCRF-CEM leukemia = tested on: CCRF-CEM leukemia
ACHN renal = tested on: ACHN renal
MDA-MB-435 = tested on: MDA-MB-435
UACC-62 melanoma = tested on: UACC-62 melanoma
RXF 393 renal = tested on: RXF 393 renal
LOX IMVI melanoma = tested on: LOX IMVI melanoma

**Q.** With `Cc1ccc(NC(=O)c2ccc(CN3CC[C@H](N(C)C)C3)c(C(F)(F)F)c2)cc1Nc1nccc(-c2cncnc2)n1` as the molecule, how does the TGI (HS 578T breast) read?
**A.** 35.6 µM and > 10 µM

**Q.** What about the GI50 (MALME-3M melanoma) of the same molecule?
**A.** 0.217 µM and 0.402 µM

**Q.** What about the GI50 (SNB-19 CNS) of the same molecule?
**A.** 10.9 µM and > 10 µM

**Q.** What about the TGI (SNB-19 CNS) of the same molecule?
**A.** 31.7 µM and > 10 µM

**Q.** And the GI50 (UO-31 renal)?
**A.** 6.69 µM and 5.17 µM

**Q.** And the TGI (UO-31 renal)?
**A.** 21.9 µM and > 10 µM

**Q.** What about the GI50 (RPMI-8226 leukemia) of the same molecule?
**A.** 5.08 µM and 4.4 µM

**Q.** And the TGI (RPMI-8226 leukemia)?
**A.** 24 µM and > 10 µM

**Q.** What about the GI50 (OVCAR-4 ovarian) of the same molecule?
**A.** 10.9 µM and > 10 µM

**Q.** And the TGI (OVCAR-4 ovarian)?
**A.** 30.1 µM and > 10 µM

**Q.** What about the GI50 (MDA-MB-231 breast) of the same molecule?
**A.** 1.42 µM and 1.98 µM

**Q.** What about the TGI (MDA-MB-231 breast) of the same molecule?
**A.** 7.82 µM and > 10 µM

**Q.** What about the GI50 (SF-295 CNS) of the same molecule?
**A.** 4.85 µM and > 10 µM

**Q.** What about the TGI (SF-295 CNS) of the same molecule?
**A.** 12.5 µM and > 10 µM

**Q.** And the GI50 (NCI-H460 lung)?
**A.** 2.99 µM and 8.15 µM

**Q.** And the TGI (NCI-H460 lung)?
**A.** 9.95 µM and > 10 µM

**Q.** And the GI50 (SN12C renal)?
**A.** 14.2 µM and > 10 µM

**Q.** And the TGI (SN12C renal)?
**A.** 34.4 µM and > 10 µM

**Q.** What about the GI50 (HCT-116 colon) of the same molecule?
**A.** 1.62 µM and 2.61 µM

**Q.** And the TGI (HCT-116 colon)?
**A.** 9.9 µM and > 10 µM

**Q.** And the GI50 (EKVX NSCLC)?
**A.** 14.6 µM and > 10 µM

**Q.** What about the TGI (EKVX NSCLC) of the same molecule?
**A.** 40 µM and > 10 µM

**Q.** What about the GI50 (UACC-257 melanoma) of the same molecule?
**A.** 1.44 µM and 1.14 µM

**Q.** What about the TGI (UACC-257 melanoma) of the same molecule?
**A.** 6.74 µM and 3.53 µM

**Q.** And the GI50 (SK-MEL-5 melanoma)?
**A.** 3.79 µM and 4.05 µM

**Q.** What about the TGI (SK-MEL-5 melanoma) of the same molecule?
**A.** 9.07 µM and > 10 µM

**Q.** What about the GI50 (U251 CNS) of the same molecule?
**A.** 6.28 µM and 6.5 µM

**Q.** What about the TGI (U251 CNS) of the same molecule?
**A.** 17.3 µM and > 10 µM

**Q.** And the GI50 (K-562 leukemia)?
**A.** 0.00433 µM

**Q.** What about the TGI (K-562 leukemia) of the same molecule?
**A.** 5.6 µM and > 10 µM

**Q.** And the GI50 (HOP-92 NSCLC)?
**A.** 5.1 µM and 1.66 µM

**Q.** And the TGI (HOP-92 NSCLC)?
**A.** 22 µM and > 10 µM

**Q.** And the GI50 (T-47D breast)?
**A.** 5.16 µM and > 10 µM

**Q.** What about the TGI (T-47D breast) of the same molecule?
**A.** 12.2 µM and > 10 µM

**Q.** What about the GI50 (MCF7 breast) of the same molecule?
**A.** 6.63 µM and > 10 µM

**Q.** And the TGI (MCF7 breast)?
**A.** 24.6 µM and > 10 µM

**Q.** What about the GI50 (COLO 205 colon) of the same molecule?
**A.** 0.331 µM and 0.423 µM

**Q.** And the TGI (COLO 205 colon)?
**A.** 6.65 µM and > 10 µM

**Q.** And the GI50 (HOP-62 NSCLC)?
**A.** 9.83 µM and 9.62 µM

**Q.** What about the TGI (HOP-62 NSCLC) of the same molecule?
**A.** 24.5 µM and > 10 µM

**Q.** And the GI50 (MOLT-4 leukemia)?
**A.** 5.23 µM and 3.69 µM

**Q.** What about the TGI (MOLT-4 leukemia) of the same molecule?
**A.** 21.4 µM and > 10 µM

**Q.** What about the GI50 (OVCAR-5 ovarian) of the same molecule?
**A.** 5.5 µM and 6.04 µM

**Q.** And the TGI (OVCAR-5 ovarian)?
**A.** 24.2 µM and > 10 µM

**Q.** What about the GI50 (A498 renal) of the same molecule?
**A.** 12.1 µM and > 10 µM

**Q.** And the TGI (A498 renal)?
**A.** 27.1 µM and > 10 µM

**Q.** What about the GI50 (CCRF-CEM leukemia) of the same molecule?
**A.** 7.23 µM and 4.55 µM

**Q.** And the TGI (CCRF-CEM leukemia)?
**A.** 30.9 µM and > 10 µM

**Q.** And the GI50 (ACHN renal)?
**A.** 4.04 µM and 8.38 µM

**Q.** What about the TGI (ACHN renal) of the same molecule?
**A.** 14.8 µM and > 10 µM

**Q.** And the GI50 (MDA-MB-435)?
**A.** 1.73 µM and 3.1 µM

**Q.** What about the TGI (MDA-MB-435) of the same molecule?
**A.** 15.6 µM and > 10 µM

**Q.** What about the GI50 (UACC-62 melanoma) of the same molecule?
**A.** 1.05 µM and 0.387 µM

**Q.** What about the TGI (UACC-62 melanoma) of the same molecule?
**A.** 15.7 µM and > 10 µM

**Q.** What about the GI50 (RXF 393 renal) of the same molecule?
**A.** 11.9 µM and 9.4 µM

**Q.** What about the TGI (RXF 393 renal) of the same molecule?
**A.** 27 µM and > 10 µM

**Q.** And the GI50 (LOX IMVI melanoma)?
**A.** 0.936 µM and 0.952 µM

**Q.** And the TGI (LOX IMVI melanoma)?
**A.** 7.14 µM and > 10 µM
